Experimental data from PubChem BioAssay (NCI).
Where “and” joins values, the source holds several entries; their conditions need not be identical. Equal values may be shown once.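 Briefly, cells in 96-well plates were exposed to five compound concentrations for 48 h, and endpoints were estimated by linear interpolation. GI50 is the concentration that inhibits growth by half. TGI denotes the concentration required for complete inhibition of growth.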

Assays:
Experiment in all cases: NCI anticancer screen, dose series, 48 h
[1] = tested on: SK-MEL-5 melanoma
[2] = tested on: CAKI-1 renal
[3] = tested on: HCC-2998 colon
[4] = tested on: HOP-62 NSCLC
[5] = tested on: OVCAR-3 ovarian
[6] = tested on: M14 melanoma
[7] = tested on: SW-620 colon
[8] = tested on: SF-295 CNS
[9] = tested on: ACHN renal
[10] = tested on: HS 578T breast

Row | SMILES | GI50 [1] | TGI [1] | GI50 [2] | TGI [2] | GI50 [3] | TGI [3] | GI50 [4] | TGI [4] | GI50 [5] | TGI [5] | GI50 [6] | TGI [6] | GI50 [7] | TGI [7] | GI50 [8] | TGI [8] | GI50 [9] | TGI [9] | GI50 [10] | TGI [10]
1 | O=C1Nc2ccccc2/C1=C\c1cccc(/C=C2/C(=O)Nc3ccccc32)n1 | 0.242 µM | 0.722 µM | 0.338 µM | 1.27 µM | 0.615 µM | 1.77 µM | 1.96 µM | 3.92 µM | 0.254 µM | 0.683 µM | 0.484 µM | 2.11 µM | 0.162 µM | 0.329 µM | 0.499 µM | 2.24 µM | 0.308 µM | 1.12 µM | 0.294 µM | 1.31 µM
2 | COc1ccc(-c2nsc3c2NC(=O)CC3c2ccc3c(c2)OCCO3)cc1 (stereo not drawn) | 0.37 µM | 5.86 µM | 0.429 µM | > 100 µM | 1.38 µM | 19.5 µM | 0.585 µM | > 100 µM | 0.327 µM | 1.15 µM | 0.397 µM | > 100 µM | 0.384 µM | > 100 µM | 0.434 µM | > 33.2 µM | 0.892 µM | > 100 µM | 0.398 µM | > 100 µM
3 | COc1ccc(OC)c(NC(=O)c2cccc(NC3=C(Cl)C(=O)N(Cc4ccccc4)C3=O)c2)c1 | 26.6 µM | 87.7 µM | > 100 µM | > 100 µM | 70.4 µM | > 100 µM | > 83.5 µM | > 100 µM | > 100 µM | > 100 µM | > 75 µM | > 100 µM | > 100 µM | > 100 µM | > 75.3 µM | > 100 µM | > 100 µM | > 100 µM | > 100 µM | > 100 µM
4 | COc1cc(OC)cc(-c2nc3sccn3c2/C=N/N=C(N)N)c1 | 8.34 µM | 15.2 µM | 8.03 µM | 15.2 µM | 7.55 µM | 14.6 µM | 9.95 µM | 17 µM | 5.52 µM | 12.3 µM | 6.96 µM | 13.4 µM | 10 µM | 19.1 µM | 8.94 µM | 17.7 µM | 8.58 µM | 17.5 µM | 12.6 µM | 25.3 µM
5 | COc1ccc(C(C#N)=C2C=CC(=NO)C=C2)cc1 | 4.34 µM | 17.2 µM | 4.88 µM | 15.1 µM | 16.1 µM | 29.7 µM | 2.47 µM | 6.5 µM | 4.31 µM | 13.4 µM | 6.09 µM | 19.6 µM | 2.09 µM | 4.39 µM | 4.8 µM | 17.1 µM | 8.63 µM | 21.1 µM | 2.9 µM | 20.3 µM
6 | CCCCCCCN(CCCCCCC)C(=N)c1ccnc2ccccc12 | 1.51 µM | 2.96 µM | 1.32 µM | 2.68 µM | 1.42 µM | 2.77 µM | 1.16 µM | 2.65 µM | 1.45 µM | 2.84 µM | 1.33 µM | 2.76 µM | 1.28 µM | 2.91 µM | 1.69 µM | 3.45 µM | 1.62 µM | 3.07 µM | 1.64 µM | 4.36 µM
7 | CN(C)C[C@H]1CCn2c(c(C3=C(c4cn(C)c5ccccc45)C(=O)NC3=O)c3ccccc32)C1 | 4.09 µM | 7.71 µM | 3.82 µM | 8.74 µM | 4.86 µM | 9.16 µM | 4.57 µM | 8.58 µM | 4.54 µM | 8.97 µM | 4.49 µM | 8.47 µM | 4.42 µM | 8.89 µM | 5.21 µM | 11.3 µM | 4.3 µM | 9.87 µM | 2.78 µM | 10.1 µM
8 | CC(CN(C)C)S(=O)(=O)c1ccc(-c2cnc(N)c(C(=O)Nc3ccccc3)n2)cc1 (stereo not drawn) | 2.93 µM | 11.5 µM | 3.02 µM | > 50.8 µM | 0.973 µM | 16.6 µM | 8.16 µM | 36.2 µM | 5.83 µM | 32.9 µM | 4.06 µM | 21.9 µM | 3.84 µM | 19.2 µM | 8.49 µM | 25.7 µM | 1.35 µM | 16.9 µM | 2.41 µM | 27 µM
9 | CC(=O)O[C@@]12CO[C@@H]1C[C@H](O)[C@@]1(C)C(=O)[C@H](O)C3=C(C)[C@@H](OC(=O)[C@H](O)[C@@H](NC(=O)OC(C)(C)C)c4ccccc4)C[C@@](O)([C@@H](OC(=O)c4ccccc4)C12)C3(C)C (stereo partly drawn) | < 0.005 µM | 9.05 µM and 14.6 µM | 0.225 µM and 0.181 µM | 50 µM and 73.6 µM | < 0.005 µM | 0.00872 µM and 0.0429 µM | < 0.005 µM | 50 µM and > 100 µM | < 0.005 µM |  |  |  | < 0.005 µM | 50 µM and > 100 µM | 0.016 µM | 50 µM and 16.8 µM |  | 50 µM and > 100 µM | < 0.005 µM | 23.5 µM and > 100 µM
10 | CN(C)c1ccc(C(=N)c2ccc(N(C)C)cc2)cc1 | 2.74 µM and 2.92 µM | 10.9 µM and 13.2 µM | 1.62 µM and 3.57 µM | 14.6 µM and 68.5 µM | 6.39 µM and 7.12 µM | 33.6 µM and 32.6 µM | 5.11 µM and 2.96 µM | 39.6 µM and 20.5 µM | 1.68 µM and 1.91 µM | 5.26 µM and 7.3 µM | 2.13 µM and 2.95 µM | 10.8 µM and 16.8 µM | 1.95 µM and 2.58 µM | 20.8 µM and > 100 µM | 2.01 µM and 3.4 µM | 11.9 µM and 21.9 µM | 6.5 µM and 7.39 µM | > 100 µM | 1.73 µM and 4.1 µM | 7.64 µM and 59.3 µM
11 | Cc1c(NC(=O)CCl)c(=O)oc2c(C)c3occc(=O)c3cc12 |  | 23.6 µM |  | 25.3 µM |  | 32.8 µM |  | 29.8 µM |  |  |  | 26 µM |  | 30.6 µM |  | 25.2 µM |  | 80.5 µM |  | 59.6 µM
12 | Nc1ncnc2c1c(-c1ccc(Oc3ccccc3)cc1)nn2C[C@H]1SSC[C@@H]1O | 0.545 µM | 1.79 µM | 1.62 µM | 12.7 µM | 3.3 µM | 27.6 µM | 0.26 µM | 3.15 µM | 0.251 µM | 0.684 µM | 0.071 µM | 0.206 µM |  |  | 1.95 µM | 9.9 µM | 0.482 µM | 9.3 µM | 2.81 µM | 10.6 µM
